Experimental data reported in patent publication US7384911B2, “Peptides having antimicrobial properties and compositions containing them, notably for the preservation of foodstuffs” (priority 2002, dated 2008).
Residues, ends and D or L forms follow the SMILES beside them.

Legend:
[1] = tested on: Aerococcus viridans; assay type: cell-based; conditions: interval [a]-[b], tested spheniscin-2 0.2-100 μM, MSI-94 0.2-10 μM
Protocol: (§1) The bacteria to be tested were suspended in a suitable nutritive medium of the “poor broth” type corresponding to a solution of bactotryptone at 10 g/l with the addition of NaCl 5 g/l in ultrapure water.
(§2) Antimicrobial activities were detected by a growth inhibition test in microtitration plates (Hétru and Bulet, 1997). One deposited […] of each fraction collected in mictrotitration plates in the presence of 90 μl of culture medium containing the microorganisms (at a final concentration equivalent to 1 mDO at 600 nm).
(§3) For the bacteria and the yeast, incubation was performed at 30° C. for 12-24 h under agitation. The growth of the microorganisms was measured by monitoring the absorbance at 600 nm by means of a spectrophotometer reader of microtitration plates.
(§4) The antimicrobial activities expressed in minimal inhibitory concentration (MIC) of spheniscin 2 (concentrations comprised between 0.2 μM and 100 μM) were determined against bacteria, yeasts and fungi using a growth inhibition test in liquid medium in microtitration plates (for the detailed protocol see example 2.4 as well as Hétru and Bulet, 1997).
(§5) The minimal growth inhibitory concentration (MIC) corresponds to the interval [a]-[b] in which [a] is the strongest concentration tested for which the microorganism grows and [b] is the weakest concentration tested starting at which there is 100% inhibition of growth of the microorganism (Casteels and Tempst, 1994). The control peptides were MSI-94 (a peptide of the mangainin family stemming from the skin of the batrachian Xenopus laevis and presenting a broad spectrum of antimicrobial activity; Maloy and Kari, 1995) for testing against the bacteria and yeasts; and thanatin (an antifungal peptide stemming from the insect Podisus maculiventris; Fehlbaum et al., 1996) for testing against the filamentous fungi.

[2] = tested on: B. megaterium; assay type: cell-based; conditions: interval [a]-[b], tested spheniscin-2 0.2-100 μM, MSI-94 0.2-10 μM
Protocol: as §1, §2, §3, §4, §5

[3] = tested on: Bacillus subtilis; assay type: cell-based; conditions: interval [a]-[b], tested spheniscin-2 0.2-100 μM, MSI-94 0.2-10 μM
Protocol: as §1, §2, §3, §4, §5

[4] = tested on: Escherichia coli SBS 363; assay type: cell-based; conditions: interval [a]-[b], tested spheniscin-2 0.2-100 μM, MSI-94 0.2-10 μM
Protocol: as §1, §2, §3, §4, §5

[5] = tested on: Klebsiella pneumoniae; assay type: cell-based; conditions: interval [a]-[b], tested spheniscin-2 0.2-100 μM, MSI-94 0.2-10 μM
Protocol: as §1, §2, §3, §4, §5

[6] = tested on: Listeria monocytogenes; assay type: cell-based; conditions: interval [a]-[b], tested spheniscin-2 0.2-100 μM, MSI-94 0.2-10 μM
Protocol: as §1, §2, §3, §4, §5

[7] = tested on: Micrococcus luteus; assay type: cell-based; conditions: interval [a]-[b], tested spheniscin-2 0.2-100 μM, MSI-94 0.2-10 μM
Protocol: as §1, §2, §3, §4, §5

[8] = tested on: Nocardia asteroides; assay type: cell-based; conditions: interval [a]-[b], tested spheniscin-2 0.2-100 μM, MSI-94 0.2-10 μM
Protocol: as §1, §2, §3, §4, §5

[9] = tested on: Pseudomonas aeruginosa ATCC 82118; assay type: cell-based; conditions: interval [a]-[b], tested spheniscin-2 0.2-100 μM, MSI-94 0.2-10 μM
Protocol: as §1, §2, §3, §4, §5

[10] = tested on: S. haemolyticus; assay type: cell-based; conditions: interval [a]-[b], tested spheniscin-2 0.2-100 μM, MSI-94 0.2-10 μM
Protocol: as §1, §2, §3, §4, §5

[11] = tested on: Salmonella typhimurium; assay type: cell-based; conditions: interval [a]-[b], tested spheniscin-2 0.2-100 μM, MSI-94 0.2-10 μM
Protocol: as §1, §2, §3, §4, §5

[12] = tested on: Staphylococcus aureus; assay type: cell-based; conditions: interval [a]-[b], tested spheniscin-2 0.2-100 μM, MSI-94 0.2-10 μM
Protocol: as §1, §2, §3, §4, §5

[13] = tested on: B. cereus ATCC 11778; assay type: cell-based, Bacillus cereus; conditions: interval [a]-[b], tested spheniscin-2 0.2-100 μM, MSI-94 0.2-10 μM
Protocol: as §1, §2, §3
as §4, with “1997). […]” for “1997).”

[14] = tested on: S. saprophyticus; assay type: cell-based, Staphylococcus saprophyticus; conditions: interval [a]-[b], tested spheniscin-2 0.2-100 μM, MSI-94 0.2-10 μM
Protocol: as §1, §2, §3
as §4, with “1997). […]” for “1997).”

[15] = tested on: E. coli 1106; assay type: cell-based, Escherichia coli; conditions: interval [a]-[b], tested spheniscin-2 0.2-100 μM, MSI-94 0.2-10 μM
Protocol: as §1, §2, §3
as §4, with “1997). […]” for “1997).”

[16] = tested on: V. anguillarum ATCC 19264; assay: MIC, growth inhibition test in liquid medium in microtitration plates; assay type: cell-based; conditions: interval [a]-[b], tested spheniscin-2 0.2-100 μM
Protocol: as §1, §2, §3
as §4, with “1997). […]” for “1997).”

[17] = tested on: Vibrio metshnikovii NCTC 8483; assay: as above; assay type: cell-based; conditions: interval [a]-[b], tested spheniscin-2 0.2-100 μM
Protocol: as §1, §2, §3
as §4, with “1997). […]” for “1997).”

[18] = tested on: C. tropicalis; assay type: cell-based; conditions: interval [a]-[b], tested spheniscin-2 0.2-100 μM, MSI-94 0.2-10 μM
Protocol: (§6) The yeast strain C. albicans to be tested was incubated in a suitable culture medium of the “Sabouraud” type.
as §2, §3, §4
(§7) The minimal growth inhibitory concentration (MIC) corresponds to the interval [a]-[b] in which [a] is the strongest concentration tested for which the microorganism grows and [b] is the weakest concentration tested starting at which there is 100% inhibition of growth of the microorganism (Casteels and Tempst, 1994). […]

[19] = tested on: Candida glabrata; assay type: cell-based; conditions: tested spheniscin-2 0.2-100 μM, MSI-94 0.2-10 μM, ND = activity not detected in range tested
Protocol: as §6, §2, §3, §4, §7

[20] = tested on: C. albicans IHEM 8060; assay type: cell-based, Candida albicans; conditions: interval [a]-[b], tested spheniscin-2 0.2-100 μM, MSI-94 0.2-10 μM
Protocol: as §6, §2, §3, §4, §7

[21] = tested on: Aspergillus fumigatus; assay type: cell-based; conditions: interval [a]-[b], tested spheniscin-2 0.2-100 μM, thanatin 0.4-41.1 μM
Protocol: (§8) The spores of the fungus N. crassa to be tested were suspended in a suitable culture medium of the “potato infusion—glucose” type. Preference was given to the use of 12 g of potato dextrose broth medium (1/2 PDB, Difco) per 1 liter of demineralized water. Two antibiotics were added to the culture medium: cefotaxime (final concentration at 100 μg/ml) and tetracycline (final concentration at 10 μg/ml).
as §2
(§9) For the filamentous fungi, the incubation was performed at 37° C. in a humid atmosphere for 48 hours.
as §4, with “1997). […]” for “1997).”

[22] = tested on: Neurospora crassa; assay type: cell-based; conditions: interval [a]-[b], tested spheniscin-2 0.2-100 μM, thanatin 0.4-41.1 μM
Protocol: as §8, §2, §9
as §4, with “1997). […]” for “1997).”

CC[C@H](C)[C@@H]1NC(=O)[C@@H]2CCCN2C(=O)[C@H]([C@@H](C)CC)NC(=O)[C@H](CO)NC(=O)[C@@H]2CCCN2C(=O)[C@H](Cc2ccccc2)NC(=O)[C@H](CCCNC(=N)N)NC(=O)[C@@H]2CSSC[C@@H](C(=O)N[C@@H](CCCNC(=N)N)C(=O)N[C@@H](CCCNC(=N)N)C(=O)N[C@H](C(=O)N[C@@H](Cc3c[nH]c4ccccc34)C(=O)O)C(C)C)NC(=O)[C@@H]3CSSC[C@H](NC(=O)[C@H](CC(C)C)NC(=O)CNC(=O)[C@H](Cc4ccccc4)NC(=O)[C@@H](N)CO)C(=O)N[C@@H](CCCNC(=N)N)C(=O)N[C@@H](CC(C)C)C(=O)N[C@@H](CCCNC(=N)N)C(=O)N[C@@H](CCCNC(=N)N)C(=O)NCC(=O)N[C@@H](Cc4ccccc4)C(=O)N[C@@H](CSSC[C@H](NC(=O)[C@H](CCCNC(=N)N)NC(=O)CNC1=O)C(=O)N[C@@H](CO)C(=O)N[C@@H](CCCNC(=N)N)C(=O)N[C@@H](Cc1ccccc1)C(=O)N[C@@H](C(C)C)C(=O)N[C@@H](CCC(N)=O)C(=O)N3)C(=O)N[C@@H](C)C(=O)N[C@@H](CCCNC(=N)N)C(=O)NCC(=O)N[C@@H](CCCNC(=N)N)C(=O)N2 [spheniscin-2] (HELM PEPTIDE1{S.F.G.L.C.R.L.R.R.G.F.C.A.R.G.R.C.R.F.P.S.I.P.I.G.R.C.S.R.F.V.Q.C.C.R.R.V.W}$PEPTIDE1,PEPTIDE1,5:R3-33:R3|PEPTIDE1,PEPTIDE1,12:R3-27:R3|PEPTIDE1,PEPTIDE1,17:R3-34:R3$$$V2.0; N-terminus and C-terminus assumed)
MIC [1]: 0.4 to 0.8 µM
MIC [2]: 0.4 to 0.8 µM
MIC [3]: 0.8 to 1.5 µM
MIC [4]: 0.8 to 1.5 µM
MIC [5]: 50 to 100 µM
MIC [6]: 6 to 12 µM
MIC [7]: 1.5 to 3 µM
MIC [8]: 0.8 to 1.5 µM
MIC [9]: 6 to 12 µM
MIC [10]: 1.5 to 3 µM
MIC [11]: 6 to 12 µM
MIC [12]: 1.5 to 3 µM
MIC [13]: 3 to 6 µM
MIC [14]: 1.5 to 3 µM
MIC [15]: 1.5 to 3 µM
MIC [16]: 25 to 50 µM
MIC [17]: 25 to 50 µM
MIC [18]: 1.5 to 3 µM
MIC [19]: >100 µM
MIC [20]: 50 to 100 µM
MIC [21]: 3 to 6 µM
MIC [22]: 3 to 6 µM
